Laboratory results reported in patent US11104676B2 (priority 2018, dated 2021).

Tests used:
[1] = target: GST-tagged recombinant human TYRO3 kinase domain (Homo sapiens (Human), UniProt Q06418); settings: read-out: TYRO3 enzyme IC50
[2] = target: His-tagged recombinant human MER cytoplasmic domain (Homo sapiens (Human), UniProt Q12866); settings: read-out: MER enzyme IC50
Protocol: (§1) Compounds of Formula I were screened for their ability to inhibit AXL kinase using Invitrogen's LanthaScreen™ Eu Kinase Binding technology. […] After a 60-minute incubation at 22° C., the reaction was measured using a PerkinElmer EnVision multimode plate reader via TR-FRET dual wavelength detection, and the percent of control (POC) was calculated using a ratiometric emission factor. […] The POC values are fit to a 4 parameter logistic curve and the IC50 value is point where the curve crosses 50 POC.

[3] = target: His-tagged recombinant human AXL cytoplasmic domain (Homo sapiens (Human), UniProt P30530); settings: read-out: AXL enzyme IC50
Sequence of His-tagged recombinant human AXL cytoplasmic domain (P30530 473-894): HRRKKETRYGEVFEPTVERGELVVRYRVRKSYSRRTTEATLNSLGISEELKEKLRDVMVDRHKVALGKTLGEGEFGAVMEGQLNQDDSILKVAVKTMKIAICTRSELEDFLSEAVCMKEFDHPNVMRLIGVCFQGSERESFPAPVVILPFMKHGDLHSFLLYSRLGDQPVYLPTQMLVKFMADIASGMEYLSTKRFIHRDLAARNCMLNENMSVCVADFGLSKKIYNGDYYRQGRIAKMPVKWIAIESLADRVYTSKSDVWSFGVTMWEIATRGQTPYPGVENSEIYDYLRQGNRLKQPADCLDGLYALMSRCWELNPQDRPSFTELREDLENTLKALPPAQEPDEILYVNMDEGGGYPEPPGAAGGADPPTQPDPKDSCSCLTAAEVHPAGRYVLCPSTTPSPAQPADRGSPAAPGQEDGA
Protocol: as §1

Sequence of GST-tagged recombinant human TYRO3 kinase domain (Q06418 518-790): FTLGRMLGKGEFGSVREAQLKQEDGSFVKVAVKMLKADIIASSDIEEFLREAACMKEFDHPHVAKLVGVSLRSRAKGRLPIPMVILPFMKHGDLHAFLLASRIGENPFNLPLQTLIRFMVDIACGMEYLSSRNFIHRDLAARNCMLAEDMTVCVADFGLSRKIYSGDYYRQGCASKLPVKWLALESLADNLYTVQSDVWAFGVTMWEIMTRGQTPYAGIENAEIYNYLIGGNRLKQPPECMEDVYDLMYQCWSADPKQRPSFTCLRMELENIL
Sequence of His-tagged recombinant human MER cytoplasmic domain (Q12866 527-999): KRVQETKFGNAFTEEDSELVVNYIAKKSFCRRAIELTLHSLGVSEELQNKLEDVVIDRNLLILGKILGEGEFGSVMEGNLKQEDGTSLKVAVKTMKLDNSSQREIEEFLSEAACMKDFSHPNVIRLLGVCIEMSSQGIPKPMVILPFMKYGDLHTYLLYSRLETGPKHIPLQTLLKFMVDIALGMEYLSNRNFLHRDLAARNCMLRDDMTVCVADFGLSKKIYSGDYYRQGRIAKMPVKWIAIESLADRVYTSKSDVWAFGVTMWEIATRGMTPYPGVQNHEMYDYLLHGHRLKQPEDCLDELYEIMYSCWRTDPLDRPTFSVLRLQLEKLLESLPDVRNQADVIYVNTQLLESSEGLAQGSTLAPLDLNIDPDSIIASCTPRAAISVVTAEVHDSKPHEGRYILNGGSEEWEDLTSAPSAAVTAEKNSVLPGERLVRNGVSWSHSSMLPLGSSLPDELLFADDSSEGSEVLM

| IC50 [1] [nM] | IC50 [2] [nM] | IC50 [3] [nM] | Compound |
| --- | --- | --- | --- |
| 1000 | 161 | 355 | C[C@H](CO)Nc1n[nH]c2nccc(Oc3ccc(NC(=O)C4CC5(CC5)CN(c5ccc(F)cc5)C4=O)cc3F)c12 (stereo partly drawn) [Example 140, N-(3-fluoro-4-((3-(((R)-1-hydroxypropan-2-yl)amino)-1H-pyrazolo[3,4-b]pyridin-4-yl)oxy)phenyl)-5-(4-fluorophenyl)-6-oxo-5-azaspiro[2.5]octane-7-carboxamide] |
| 1000 | 178 | 485 | C[C@H](CO)Nc1n[nH]c2nccc(Oc3ccc(NC(=O)C4(C)CCCN(c5ccc(F)cc5)C4=O)cc3F)c12 (stereo partly drawn) [Example 141, N-(3-fluoro-4-((3-(((R)-1-hydroxypropan-2-yl)amino)-1H-pyrazolo[3,4-b]pyridin-4-yl)oxy)phenyl)-1-(4-fluorophenyl)-3-methyl-2-oxopiperidine-3-carboxamide] |
| 348 | – | – | CCn1nc(C(=O)Nc2ccc(Oc3ccnc4[nH]nc(N[C@@H](C)CO)c34)c(F)c2)c(=O)n(-c2ccc(F)c(F)c2)c1=O [Example 132, (S)-4-(3,4-difluorophenyl)-2-ethyl-N-(3-fluoro-4-((3-((1-hydroxypropan-2-yl)amino)-1H-pyrazolo[3,4-b]pyridin-4-yl)oxy)phenyl)-3,5-dioxo-2,3,4,5-tetrahydro-1,2,4-triazine-6-carboxamide] |
| 248 | – | – | Cc1cc(C(=O)Nc2ccc(Oc3ccnc4[nH]nc(NC(C)CC(F)F)c34)cn2)c(=O)n(-c2ccc(F)cc2)c1 (centres unmarked) [Example 168, N-(5-((3-((4,4-difluorobutan-2-yl)amino)-1H-pyrazolo[3,4-b]pyridin-4-yl)oxy)pyridin-2-yl)-1-(4-fluorophenyl)-5-methyl-2-oxo-1,2-dihydropyridine-3-carboxamide] |
| 192 | – | – | COCC(C)(C)Nc1n[nH]c2nccc(Oc3ccc(NC(=O)c4ccnn(-c5ccc(F)cc5)c4=O)nc3)c12 [Example 71, 2-(4-fluorophenyl)-N-(5-((3-((1-methoxy-2-methylpropan-2-yl)amino)-1H-pyrazolo[3,4-b]pyridin-4-yl)oxy)pyridin-2-yl)-3-oxo-2,3-dihydropyridazine-4-carboxamide] |
| 104 | – | – | COCC(C)(C)Nc1n[nH]c2nccc(Oc3ccc(NC(=O)c4cn(C)c(=O)n(-c5ccc(F)cc5)c4=O)cc3F)c12 [Example 158, N-(3-fluoro-4-((3-((1-methoxy-2-methylpropan-2-yl)amino)-1H-pyrazolo[3,4-b]pyridin-4-yl)oxy)phenyl)-3-(4-fluorophenyl)-1-methyl-2,4-dioxo-1,2,3,4-tetrahydropyrimidine-5-carboxamide] |
| 318 | – | – | COCCC(C)(C)Nc1n[nH]c2nccc(Oc3ccc(NC(=O)c4ccnn(-c5ccc(F)cc5)c4=O)cc3F)c12 [Example 22, N-(3-fluoro-4-((3-((4-methoxy-2-methylbutan-2-yl)amino)-1H-pyrazolo[3,4-b]pyridin-4-yl)oxy)phenyl)-2-(4-fluorophenyl)-3-oxo-2,3-dihydropyridazine-4-carboxamide] |
